Source: patent publication US5462929A, “Treatment of psoriasis by administration of 4-carbamoyl-1-β-D-ribofuranosylimidszolium-5-oleate” (Asahi Kasei Kogyo Kabushiki Kaisha, priority 1991, dated 1995)
Where two headings read alike, the source gives them in different places.

Experiments:
[1] = in vivo; cited from earlier work
[2] = clinical trials; cited from earlier work
psoriasis vulgaris = assay: Clinical trial on treatment of psoriasis (PASI, adverse effect, overall improvement, usefulness); format: in vivo, human; design: key to usefulness: 1: extremely useful; 2: useful; 3: slightly useful; 4: useless; 5: worse; key to overall improvement rate: 1: significantly improved; 2: improved; 3: slightly improved; 4: no change; 5: exacerbation; details: 300 mg/day oral
Description: 2. Subject: Patients of psoriasis.
(1) Psoriasis vulgaris with median grade which satisfied within the following standard.
a) No consideration for the distinction of sex, inpatient and outpatient.
b) aged over 15 and below 70.
c) PASI [Psoriasis area and Severity Index; Darmtologica, 157; 238-244, 1978: Table 4] over 20 at initial stage of the test.
(2) Following patients are omitted.
b) patients who have suffered with severe bacterial, viral or mycotic infection.
c) person with complication or anamesis of malignant tumor.
d) person with cardiac disorder, renal disorder, blood disorder, gastrointestinal bleeding, peptic ulcer, and other serious complication, and anamesis.
e) a person in pregnancy or in a lactation, and who suspects being pregnant.
f) in addition, persons who are determined by the doctors-in-charge as unfit to participate.
2) Term for dosage: 6 weeks
3) Prohibited other concomitant drugs.
Concomitant use of the following preparation and others are prohibited.
a) Oral dosage of methotrexate, other immunosuppressant, etretinate and steroid preparations.
b) Ultraviolet treatment.
c) Other medicament which seem to be effective for psoriasis [Chinese indigenous medicine (Kampo-Yaku), anti-allergic drug, etc.]
2) Calculation method of PASI:
PASI=0.1 (Eh+Ih+Dh)×Ah+0.3 (Et+It+Dt)×At+0.2 (Eu+Iu+Du)×Au+0.4 (El+Il+Dl)×Al
During the period of administration of the drug, accompanied symptoms, which have newly appeared and were thought to be closely related to and can not be denied with the relation for the administered medicament, are checked and searched in details of the fact, the day appeared, the day disappeared, degree, treatment, result and relation with the test drug, and studied the presence of adverse effect.
On the treatment of administration of the drug after 6 weeks, the results were evaluated.
Considering the progress of PASI, following five degrees of evaluation were applied as compared with the condition before administration.
Considering the overall improvement and safety evaluation such as adverse effect, following five degrees of evaluation were applied.

rats = details: cited from earlier work
[3] = tested on: Normal human epidermal keratinocyte cells (NHEK); assay: Microscopical observation of cultured keratinocyte cells; format: cell-based; details: 0.8 and 4 μg/ml, days 5, 7, 9; ×76.5
Experimental: (§1) Normal human epidermal keratinocyte cells
(§2) (NHEK: human penile prepuce originated secondary cultured cells)
(§3) (1) NHEK was subcultured according to the instruction described in the manual for Epi Pack, to obtain tertiary subcultured cells. Epi Pack medium on arrival was exchanged by fresh K-C,M to which added attached bovine pituitary gland extract (BPE), then NHEK was cultured at 37° C. and on the first day, tertiary cultivation was performed under the same conditions.
(§4) Cultured, day 5, day 7 and day 9: Photographs were taken on the central part of the two plates of 24-well culture plate, and calculated the number of cells.
Magnification of microscopic photographs is ×76.5 in each case.

mice = details: cited from earlier work
[4] = tested on: Normal human epidermal keratinocyte cells (NHEK); assay: Growth inhibition on cultured human epidermal keratinocyte cells, dye uptake method
[5] = tested on: Normal human epidermal keratinocyte cells (NHEK); assay: Growth inhibition on cultured human epidermal keratinocyte cells, Coulter counter method; format: cell-based; details: for Number of cells/cm^2: control 95.5
Experimental: as §1, §2, §3
On the day of starting initial cultivation:
NHEK, 2500 cells/cm^2 (5000 cell/well), was inoculated in six 24-well culture plates.
as §4
On the remaining other plates, the medium was exchanged and mizoribine was added. (amount added: the same as above)
Method of calculating number of cells
On the cultivation, day 5, day 7 and day 9, respectively, one plate of 24-well culture plate was applied for calculating number of cells by Coulter counter, and the other one plate was applied for dye uptake method.
(a) Measurement by Coulter counter
Each well: washed with 0.2 ml of HEPES buffer saline
add 0.2 ml of trypsin/EDTA solution,
allow to stand at room temperature for 10 minutes,
then tap the 24-well culture plate by solid face to remove
added 0.3 ml of trypsin neutralization solution and separated
the cells by pipetting.
calculation of cells by Coulter counter
(counted particles over 7 μm .phi.)

[6] = tested on: rejection of the transplantation of an organ such as kidney; details: cited from earlier work
[7] = tested on: Normal human epidermal keratinocyte cells (NHEK); assay: Growth inhibition on cultured human epidermal keratinocyte cells, Coulter counter method; format: cell-based; details: mizoribine over 20 μg/ml, constant level; initial concentration 2.5×10^3 cells/ml
[8] = cited from earlier work
[9] = rat; cited from earlier work

In the case of NC(=O)c1ncn([C@@H]2O[C@H](CO)[C@@H](O)[C@H]2O)c1O [Mizoribine, 4-carbamoyl-1-β-D-ribofuranosyl-imidazolium-5-olate], the blood accumulation residue [1] is listed as “lower blood accumulation residue”, the nephrotoxicity [1] is listed as “no nephrotoxicity” and the transfer into brain [1] is listed as “less transfer into brain”. The Blood level [2] was “approximately 1 μg/ml”, the overall improvement rate (psoriasis vulgaris; after 6 weeks) was 2 and the usefulness (psoriasis vulgaris; after 6 weeks, overall improvement and safety) was 2. For the same compound, the Adverse effect (psoriasis vulgaris; individual patients No. 1-4, 6 weeks) was “None”, the PASI post (psoriasis vulgaris; patient No. 1, PASI pre 20, 6 weeks) was 12 and the PASI post (psoriasis vulgaris; patient No. 2, PASI pre 41.4, 6 weeks) was 20. For the same compound, the PASI post (psoriasis vulgaris; patient No. 3, PASI pre 24.3, 6 weeks) was 14, the PASI post (psoriasis vulgaris; patient No. 4, PASI pre 21, 6 weeks) was 12 and the LD50 (rats; female, i.m.) was over 2800 mg/kg. For the same compound, the LD50 (rats; female, i.v.) was over 2606 mg/kg, the LD50 (rats; female, s.c.) was over 3975 mg/kg and the LD50 (rats; male, i.m.) was over 2800 mg/kg. For the same compound, the LD50 (rats; male, i.v.) was over 2572 mg/kg, the LD50 (rats; male, p.o.) was over 3100 mg/kg and the LD50 (rats; male, s.c.) was over 4161 mg/kg. The morphology of cells [3] was “changed widely expanded shape”, the LD50 (mice; female, i.m.) was over 2800 mg/kg and the LD50 (mice; female, i.v.) was over 3042 mg/kg. The LD50 (mice; female, p.o.) was over 4883 mg/kg, the LD50 (mice; female, s.c.) was over 4883 mg/kg and the LD50 (mice; male, i.m.) was over 2800 mg/kg. For the same compound, the LD50 (mice; male, i.v.) was over 3042 mg/kg, the LD50 (mice; male, p.o.) was over 4883 mg/kg and the LD50 (mice; male, s.c.) was over 4883 mg/kg. For the same compound, the “growth inhibition rate, dye uptake method compared with Coulter counter method” value ([4]; mizoribine addition) was “slightly lower growth inhibition rate”, the OD665 value ([4]; where no difference in number of cells vs control by Coulter counter, lower level of concentration) was “Significant increase in the value at OD665” and the “Number of cells/cm^2” value ([5]; 0.8 μg/ml, cultivation day 5, Coulter counter) was 69.7 ×10^3 cells/cm^2. The growth inhibition ([5]; 4 μg/ml) was “significant growth inhibition was observed and cells were grown extremely slowly”, the “Number of cells/cm^2” value ([5]; 4 μg/ml, cultivation day 5, Coulter counter) was 8.6 ×10^3 cells/cm^2 and the growth inhibition ([5]; 8 μg/ml) was “significant growth inhibition was observed”. For the same compound, the “Number of cells/cm^2” value ([5]; 20 μg/ml, cultivation day 5, Coulter counter) was 4.5 ×10^3 cells/cm^2, the inhibition at 0.8 µg/mL ([5]; Homo sapiens, NHEK, 120 h, 0.8 μg/ml, cultivation day 5, Coulter counter, read-out: Inhibition rate) was 27% and the inhibition at 4 µg/mL ([5]; Homo sapiens, NHEK, 120 h, 4 μg/ml, cultivation day 5, Coulter counter, read-out: Inhibition rate) was 91%. The inhibition at 20 µg/mL ([5]; Homo sapiens, NHEK, 120 h, 20 μg/ml, cultivation day 5, Coulter counter, read-out: Inhibition rate) was 95%, the “inhibition of growth of human epidermal keratinocyte cells at concentration presumed to be reached in clinical use” value ([5]; blood level approximately 1 μg/ml) was “effective for significant inhibition of growth of human epidermal keratinocyte cells” and the “immunosuppressive activity / rejection of organ transplantation” value [6] was “suppresses the rejection of the transplantation of an organ such as kidney”. For the same compound, the number of cells [7] was “approximately 4×10^3 cells/ml”, the solubility in water [8] was “easily soluble in water” and the “Dermal level compared with plasma level” value [9] was “almost equal in plasma level”.
